Results: ChEMBL document CHEMBL6083262, “Stereorandomized Oncocins with Preserved Ribosome Binding and Antibacterial Activity” (J Med Chem, 2024)
Converted amounts (≈) assume the structure as drawn. The source made the active and inactive calls. No cut-off for these calls is given here. Non-standard residues stand in square brackets, D forms with d. Residues, ends and D or L forms follow the SMILES beside them. ξ: configuration not given here. ξY = NC(Cc1ccc(O)cc1)C(=O)O; ξR = N=C(N)NCCCC(N)C(=O)O; ξD = NC(CC(=O)O)C(=O)O; ξN = NC(=O)CC(N)C(=O)O; ξI = CCC(C)C(N)C(=O)O; ξL = CC(C)CC(N)C(=O)O; ξK = NCCCCC(N)C(=O)O; ξV = CC(C)C(N)C(=O)O; ξP = O=C(O)C1CCCN1

Assays:
[1] = system: Lipid bilayer; assay: Induction of membrane disruption in egg yolk phosphatidyl choline at 10 ug/ml by measuring vesicle leakage; settings: dose 10.0 µg/ml
[2] = system: Klebsiella pneumoniae; assay: Bacteriostatic activity against Klebsiella pneumoniae assessed as membrane perturbation at 8 times MIC in full muller hinton medium by transmission electron microscopic analysis; format: functional, organism-based
[3] = system: Klebsiella pneumoniae; assay: Bacteriostatic activity against Klebsiella pneumoniae assessed as small intracellular vesicles at 8 times MIC in full muller hinton medium by transmission electron microscopic analysis; format: functional, organism-based
[4] = system: Lipid bilayer; assay: Induction of membrane disruption in egg yolk phosphatidyl glycerol at 10 ug/ml by measuring vesicle leakage; settings: dose 10.0 µg/ml
[5] = system: Escherichia coli; assay: Bacteriostatic activity against Escherichia coli assessed as membrane perturbation at 8 times MIC in full muller hinton medium by transmission electron microscopic analysis; format: functional, organism-based
[6] = system: Escherichia coli; assay: Bacteriostatic activity against Escherichia coli at 8 times MIC in full muller hinton medium by Time-kill assay; format: functional, organism-based
[7] = system: Klebsiella pneumoniae; assay: Bacteriostatic activity against Klebsiella pneumoniae assessed as detachment of inner membrane from outer membrane by measuring a large void at 8 times MIC in full muller hinton medium by transmission electron microscopic analysis; format: functional, organism-based
[8] = system: Pseudomonas aeruginosa; assay: Antibacterial activity against multidrug-resistant Pseudomonas aeruginosa clinical isolate ZEM9A incubated for 16 to 20 hrs in full muller hinton medium by broth microdilution method; format: functional; settings: time 16-20 hrs
[9] = system: Pseudomonas aeruginosa; assay: Antibacterial activity against multidrug-resistant Pseudomonas aeruginosa PA14 incubated for 16 to 20 hrs in full muller hinton medium by broth microdilution method; format: functional; settings: time 16-20 hrs
[10] = Hemolytic activity in human RBC incubated for 4 hrs; format: toxicity, cell-based; settings: erythrocyte
[11] = system: Staphylococcus aureus; assay: Antimicrobial activity against methicillin-resistant Staphylococcus aureus COL incubated for 16 to 20 hrs in full muller hinton medium by broth microdilution method; format: functional; settings: time 16-20 hrs
[12] = system: Escherichia coli; assay: Bacteriostatic activity against Escherichia coli assessed as small intracellular vesicles at 8 times MIC in full muller hinton medium by transmission electron microscopic analysis; format: functional, organism-based
[13] = system: Pseudomonas aeruginosa; assay: Antibacterial activity against multidrug-resistant Pseudomonas aeruginosa PA14 2P4 harboring pmrB mutant incubated for 16 to 20 hrs in full muller hinton medium by broth microdilution method; format: functional; settings: time 16-20 hrs
[14] = system: rRNA; assay: Binding affinity to [gamma32 P-ATP] labeled Escherichia coli MG1655 23S ribosomal RNA (5-CCCTTGGGACCTACTTC-3') at U2506 position assessed as increase in band intensity at 1 uM incubated for 2.5 hrs in full muller hinton medium by CMCT based gel electrophoresis; format: nucleic-acid assay
[15] = system: Escherichia coli; assay: Bacteriostatic activity against Escherichia coli assessed as detachment of inner membrane from outer membrane by measuring a large void at 8 times MIC in full muller hinton medium by transmission electron microscopic analysis; format: functional, organism-based
[16] = system: Klebsiella pneumoniae; assay: Bacteriostatic activity against Klebsiella pneumoniae at 8 times MIC in full muller hinton medium by Time-kill assay; format: functional, organism-based
[17] = system: Escherichia coli; assay: Antimicrobial activity against Escherichia coli W3110 incubated for 16 to 20 hrs in 12.5 % muller hinton medium by broth microdilution method; format: functional; settings: time 16-20 hrs
[18] = system: Pseudomonas aeruginosa; assay: Antimicrobial activity against Pseudomonas aeruginosa PAO1 incubated for 16 to 20 hrs in full muller hinton medium by broth microdilution method; format: functional; settings: time 16-20 hrs
[19] = system: Acinetobacter baumannii; assay: Antimicrobial activity against Acinetobacter baumannii ATCC 19606 incubated for 16 to 20 hrs in 12.5 % muller hinton medium by broth microdilution method; format: functional; settings: time 16-20 hrs
[20] = system: Escherichia coli; assay: Antimicrobial activity against Escherichia coli W3110 incubated for 16 to 20 hrs in full muller hinton medium by broth microdilution method; format: functional; settings: time 16-20 hrs
[21] = system: Pseudomonas aeruginosa; assay: Antibacterial activity against multidrug-resistant Pseudomonas aeruginosa clinical isolate ZEM-1A incubated for 16 to 20 hrs in full muller hinton medium by broth microdilution method; format: functional; settings: time 16-20 hrs
[22] = system: Klebsiella pneumoniae; assay: Antimicrobial activity against Klebsiella pneumoniae NCTC 418 incubated for 16 to 20 hrs in 12.5 % muller hinton medium by broth microdilution method; format: functional; settings: time 16-20 hrs
[23] = system: Klebsiella pneumoniae; assay: Antibacterial activity against multidrug-resistant Klebsiella pneumoniae clinical isolate OXA-48 incubated for 16 to 20 hrs in 12.5 % muller hinton medium by broth microdilution method; format: functional; settings: time 16-20 hrs
[24] = system: Klebsiella pneumoniae; assay: Antibacterial activity against multidrug-resistant Klebsiella pneumoniae clinical isolate OXA-48 incubated for 16 to 20 hrs in full muller hinton medium by broth microdilution method; format: functional; settings: time 16-20 hrs
[25] = system: Pseudomonas aeruginosa; assay: Antibacterial activity against multidrug-resistant Pseudomonas aeruginosa PA14 4.18 harboring pmrB mutant incubated for 16 to 20 hrs in full muller hinton medium by broth microdilution method; format: functional; settings: time 16-20 hrs
[26] = system: Klebsiella pneumoniae; assay: Antimicrobial activity against Klebsiella pneumoniae NCTC 418 incubated for 16 to 20 hrs in full muller hinton medium by broth microdilution method; format: functional; settings: time 16-20 hrs
[27] = system: Pseudomonas aeruginosa; assay: Antimicrobial activity against Pseudomonas aeruginosa PAO1 incubated for 16 to 20 hrs in 12.5 % muller hinton medium by broth microdilution method; format: functional; settings: time 16-20 hrs
[28] = system: Staphylococcus aureus; assay: Antimicrobial activity against methicillin-resistant Staphylococcus aureus COL incubated for 16 to 20 hrs in 12.5 % muller hinton medium by broth microdilution method; format: functional; settings: time 16-20 hrs
[29] = system: Enterobacter cloacae; assay: Antibacterial activity against multidrug-resistant Enterobacter cloacae incubated for 16 to 20 hrs in full muller hinton medium by broth microdilution method; format: functional; settings: time 16-20 hrs
[30] = system: Pseudomonas aeruginosa; assay: Antibacterial activity against multidrug-resistant Pseudomonas aeruginosa clinical isolate ZEM-1A incubated for 16 to 20 hrs in 12.5 % muller hinton medium by broth microdilution method; format: functional; settings: time 16-20 hrs
[31] = system: Pseudomonas aeruginosa; assay: Antibacterial activity against multidrug-resistant Pseudomonas aeruginosa PA14 4.13 harboring phoQ mutant incubated for 16 to 20 hrs in full muller hinton medium by broth microdilution method; format: functional; settings: time 16-20 hrs

| SMILES | MIC [8] | MIC [9] | MHC [10] | MIC [11] | MIC [13] | Activity [14] | MIC [17] | MIC [18] | MIC [19] | further results |
| --- | --- | --- | --- | --- | --- | --- | --- | --- | --- | --- |
| CCC(C)C(NC(=O)C(CCCNC(=N)N)NC(=O)C(CCCNC(=N)N)NC(=O)C1CCCN1C(=O)C1CCCN1C(=O)C(CCCNC(=N)N)NC(=O)[C@@H]1CCCN1C(=O)[C@H](CCCNC(=N)N)NC(=O)[C@@H]1CCCN1C(=O)[C@H](CC(C)C)NC(=O)[C@H](Cc1ccc(O)cc1)NC(=O)[C@@H]1CCCN1C(=O)[C@@H]1CCCN1C(=O)[C@H](CCCCN)NC(=O)[C@H](CC(=O)O)NC(=O)[C@@H](N)C(C)C)C(=O)NC(Cc1ccc(O)cc1)C(=O)NC(CC(N)=O)C(=O)NC(CCCNC(=N)N)C(N)=O (stereo partly specified) (H-VDKPPYLPRP[ξR][ξP][ξP][ξR][ξR][ξI][ξY][ξN][ξR]-NH2) | > 64 µg/mL | > 64 µg/mL | > 1000 µg/mL | > 64 µg/mL | > 64 µg/mL | Active |  |  |  | Activity [1]: Active; Activity [2]: Active; Few Membrane Perturbation Observed; Activity [3]: Active; Activity [4]: Active; Activity [5]: Active; Few Membrane Perturbation Observed; Activity [6]: Active; Activity [7]: Active; Activity [12]: Active; Activity [15]: Active; Activity [16]: Active |
| CC[C@H](C)[C@H](NC(=O)[C@H](CCCNC(=N)N)NC(=O)[C@H](CCCNC(=N)N)NC(=O)[C@@H]1CCCN1C(=O)[C@@H]1CCCN1C(=O)[C@H](CCCNC(=N)N)NC(=O)[C@@H]1CCCN1C(=O)[C@H](CCCNC(=N)N)NC(=O)[C@@H]1CCCN1C(=O)[C@H](CC(C)C)NC(=O)[C@H](Cc1ccc(O)cc1)NC(=O)[C@@H]1CCCN1C(=O)[C@@H]1CCCN1C(=O)C(CCCCN)NC(=O)C(CC(=O)O)NC(=O)C(N)C(C)C)C(=O)N[C@@H](Cc1ccc(O)cc1)C(=O)N[C@@H](CC(N)=O)C(=O)N[C@@H](CCCNC(=N)N)C(N)=O (stereo partly specified) (H-[ξV][ξD][ξK]PPYLPRPRPPRRIYNR-NH2) |  |  | > 1000 µg/mL | > 64 µg/mL |  |  | 2 µg/mL (≈ 0.837 µM) | > 64 µg/mL | 8 µg/mL (≈ 3.35 µM) |  |
| CCC(C)C(NC(=O)C(CCCNC(=N)N)NC(=O)[C@H](CCCNC(=N)N)NC(=O)[C@@H]1CCCN1C(=O)[C@@H]1CCCN1C(=O)[C@H](CCCNC(=N)N)NC(=O)[C@@H]1CCCN1C(=O)[C@H](CCCNC(=N)N)NC(=O)[C@@H]1CCCN1C(=O)[C@H](CC(C)C)NC(=O)[C@H](Cc1ccc(O)cc1)NC(=O)[C@@H]1CCCN1C(=O)[C@@H]1CCCN1C(=O)C(CCCCN)NC(=O)C(CC(=O)O)NC(=O)C(N)C(C)C)C(=O)NC(Cc1ccc(O)cc1)C(=O)NC(CC(N)=O)C(=O)NC(CCCNC(=N)N)C(N)=O (stereo partly specified) (H-[ξV][ξD][ξK]PPYLPRPRPPR[ξR][ξI][ξY][ξN][ξR]-NH2) |  |  | > 1000 µg/mL | > 64 µg/mL |  |  | 1 µg/mL (≈ 0.418 µM) | > 64 µg/mL | 4 µg/mL (≈ 1.67 µM) | MIC [20]: 8 µg/mL (≈ 3.35 µM) |
| CC[C@H](C)[C@H](NC(=O)[C@H](CCCNC(=N)N)NC(=O)C(CCCNC(=N)N)NC(=O)C1CCCN1C(=O)C1CCCN1C(=O)C(CCCNC(=N)N)NC(=O)C1CCCN1C(=O)C(CCCNC(=N)N)NC(=O)C1CCCN1C(=O)C(CC(C)C)NC(=O)C(Cc1ccc(O)cc1)NC(=O)C1CCCN1C(=O)C1CCCN1C(=O)C(CCCCN)NC(=O)C(CC(=O)O)NC(=O)C(N)C(C)C)C(=O)N[C@@H](Cc1ccc(O)cc1)C(=O)N[C@@H](CC(N)=O)C(=O)N[C@@H](CCCNC(=N)N)C(N)=O (stereo partly specified) (H-[ξV][ξD][ξK][ξP][ξP][ξY][ξL][ξP][ξR][ξP][ξR][ξP][ξP][ξR]RIYNR-NH2) | > 64 µg/mL | > 64 µg/mL | > 1000 µg/mL | > 64 µg/mL | > 64 µg/mL | inactive | 4 µg/mL (≈ 1.67 µM) | > 64 µg/mL |  | MIC [21]: > 64 µg/mL; MIC [22]: > 16 µg/mL; MIC [23]: > 64 µg/mL; MIC [24]: > 64 µg/mL; MIC [25]: > 64 µg/mL; MIC [26]: > 64 µg/mL; MIC [27]: > 16 µg/mL; MIC [28]: > 64 µg/mL; MIC [29]: > 64 µg/mL; MIC [30]: > 64 µg/mL; MIC [31]: > 64 µg/mL |
